In paper PMC4432651, “Dynamic interplay between catalytic and lectin domains of GalNAc-transferases modulates protein O-glycosylation” (Nature Communications, 2015):
Where a SMILES comes first, the peptide text is derived from it. The star is where a group is joined. αGalNAc = CC(=O)N[C@@H]1[C@@H](O)[C@@H](O)[C@@H](CO)O[C@@H]1*

What was measured:
GalNAc-T2 [1] = target: T1, GalNAc-T2 (Homo sapiens, UniProt Q10471); details: cited from earlier work
T1 construct: made in house
Source text: Among other conclusions it was reported that the glycosylation ...

GalNAc-T2 [2] = target: T1, GalNAc-T2; assay: SAXS with Ensemble Optimization Method: GalNAc-T2 conformations/oligomers with ligands; details: for Rg from p(r) (GNOM) / Dmax / Rg (Guinier): GalNAc-T2 5 mg/ml, 25 mM TRIS pH 7.5, 10 mM MnCl2, 10 °C; for Dmax: maximum intramolecular distance, GNOM; as to Dmax: values in Å; as to Rg (Guinier): values in Å; as to Rg from p(r) (GNOM): values in Å
Description: SAXS measurements were performed at the European Molecular Biology Laboratory on the storage ring PETRA-III (DESY-Hamburg) on the P12 beamline equipped with a robotic sample changer and a PILATUS-2M. The analysis of the SAXS data was performed by using the EOM[31]. Additional details are in Supplementary Methods. […]
Small-angle X-ray scattering (SAXS) and data analysis
All experiments were performed in a buffer consisting of 25 mM TRIS pH 7.5, 10 mM MnCl2. The first set of experiments contained three different protein concentrations: 10 mg/ml (180 µM), 5 mg/ml (90 µM), 2.5 mg/ml (45 µM) and 1 […]
mg/ml (18 µM). The protein was measured alone and in the presence of ten times molar excess of UDP, UDP-GalNAc, UDP-EA2 peptide, MUC5AC-13, UDP-MUC5AC-13, MUC5AC, and UDP-MUC5AC. The second set of experiments was carried out with the protein concentration fixed at 5 mg/ml, and increasing concentrations of UDP (450 µM, 900 µM, 1.8 mM, 4.5 mM and 9 mM). The concentration of MUC5AC-13 was also changed as follows: 1 mM, 5 mM and 7.5 […]
Synchrotron SAXS measurements were performed at the European Molecular
Biology Laboratory (EMBL) on the storage ring PETRA-III (DESY-Hamburg) on the P12 beamline equipped with a robotic sample changer and a PILATUS-2M. The sample-detector distance was 3.1 m. The scattering intensity, I(s), was recorded at 10 °C in a momentum transfer range of 0.007<s<0.444 Å -1, where s = (4πsinθ )/λ , 2θ is the scattering angle, and λ = 1.24 Å is the X-ray wavelength. Twenty consecutive 0.05 second measurements were performed for protein samples and buffers to monitor for radiation damage that were subsequently averaged (no systematic radiation effects were observed). Buffer scattering profiles were subtracted from the sample ones using standard procedures 8. The values of the forward scattering, I(0), and radii of gyration, Rg, were calculated from the experimental SAXS patterns using Guinier’s approximation (Supplementary Fig. 4 and 5), I(s) = I(0)exp(-s2Rg2/3), which is valid in the range sRg < 1.3.
Structural analysis of the SAXS data was performed using the Ensemble Optimization Method (EOM)9. A pool of 10,000 monomeric structures of GalNac-T2 was constructed with the program RanCh9 by connecting three-dimensional structures of the catalytic and the lectin domains, extracted from the crystallographic structure 2FFU, with a flexible linker of 12 residues with random coil conformations. To […]
properly describe the data, these monomeric ensembles were enriched with 100 equivalent curves corresponding to one dimeric arrangement. As we tested three dimers, we built three different ensembles with the same 10,000 monomeric conformations and 100 copies of each one of the dimers. The three different dimers used for SAXS are shown in Supplementary Fig. 3c and correspond to three different crystal structures obtained under different conditions.
The scattering profiles of all members of the pool were computed with the program CRYSOL using standard parameters10. The pool of structures/profiles was submitted to the genetic algorithm (GA) with the aim to select a subensemble of 50 structures/curves with the capacity to collectively describe the experimental SAXS […]
was repeated 200 times starting from different randomly selected subensembles, and the resulting solutions were analysed together. The same pool was used to describe all the measured data. Results were quantitatively analysed by displaying the Rg distributions of the selected ensembles and the relative population of monomeric and dimeric species.
Three different dimeric arrangements were introduced individually in the pool. In all three cases the dimers display similar contacts between the lectin domains and the lectin domain of one monomer with the catalytic domain of a second monomer (Supplementary Fig. 3c). We can distinguish the crystallographic dimers by the buried area parameter inferred from the PISA server. The dimers present in the crystal structure of GalNAc-T2-UDP complex (PDB entry 2FFV) are the most compact ones […]

GalNAc-T2 [3] = target: T1, GalNAc-T2; assay: X-ray crystal structures of GalNAc-T2 complexes; type: binding; as to Rg of crystal complex: values in Å
Description: In all cases, crystals were grown by hanging drop vapour diffusion at 18 °C. […] The protein solution consisting of 3.5 mg ml^−1 of GalNAcT-2, 5 mM UDP, 5 mM MnCl2 and 6 mM MUC5AC-13 in the same buffer described above was mixed with the precipitant solution containing 1.6 M ammonium sulfate, 100 mM sodium chloride and 100 mM HEPES (pH 7). The crystals were cryoprotected in saturated lithium sulfate and frozen in a nitrogen gas stream cooled to 100 K.
All data were processed and scaled using the XDS package[34] and CCP4 software. The crystal structures were solved by molecular replacement with Phaser[35] and using the PDB entry 4D0T as the template. Initial phases were further improved by cycles of manual model building in Coot[36] and refinement with REFMAC5 (ref. [37]). The AUs of the tetragonal crystals contain 1 molecule of GalNAc-T2 (Fig. 1). Coordinates and structure factors have been deposited in the Worldwide Protein Data Bank (wwPDB, and see Table 1 for the pdb codes).

[4] = ligand molar ratio GalNAc-T2:ligand 1:10
[5] = ligand molar ratio GalNAc-T2:ligand 1:20

T1 sequence (Q10471 75-571 limits assumed): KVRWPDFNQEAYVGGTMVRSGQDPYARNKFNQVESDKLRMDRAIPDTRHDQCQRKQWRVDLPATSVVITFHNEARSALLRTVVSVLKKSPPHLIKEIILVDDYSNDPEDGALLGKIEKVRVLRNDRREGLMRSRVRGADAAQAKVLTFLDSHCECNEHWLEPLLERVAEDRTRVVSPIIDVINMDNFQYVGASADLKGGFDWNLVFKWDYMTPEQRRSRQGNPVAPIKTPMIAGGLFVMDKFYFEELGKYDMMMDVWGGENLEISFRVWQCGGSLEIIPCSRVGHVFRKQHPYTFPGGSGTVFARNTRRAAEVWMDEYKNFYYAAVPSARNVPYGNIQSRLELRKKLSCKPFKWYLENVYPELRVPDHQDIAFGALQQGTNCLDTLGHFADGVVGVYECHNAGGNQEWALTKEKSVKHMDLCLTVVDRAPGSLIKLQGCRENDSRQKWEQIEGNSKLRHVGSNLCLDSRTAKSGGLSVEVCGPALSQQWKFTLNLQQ

| Structure (SMILES) | optimal glycosylation site (GalNAc-T2 [1]; prior glycosylated site Thr13, ref 1 (supplement)) | glycosylation of further sites Ser5 and Thr9 (GalNAc-T2 [1]; ref 1 (supplement)) | effect on GalNAc-T2 dimers (in words) (GalNAc-T2 [2]; GalNAc-T2 fixed at 5 mg ml−1, increasing concentrations of peptide) | Rg from p(r) (GNOM) (GalNAc-T2 [2]; ligand molar ratio 1:10) [Å] | Dmax (GalNAc-T2 [2]; ligand molar ratio 1:10) [Å] | Rg from p(r) (GNOM) (GalNAc-T2 [2]; ligand molar ratio 1:20) [Å] | Dmax (GalNAc-T2 [2]; ligand molar ratio 1:20) [Å] | Rg (Guinier) (GalNAc-T2 [2]; [4]) [Å] | Rg (Guinier) (GalNAc-T2 [2]; [5]) [Å] | Rg (Guinier) (GalNAc-T2 [2]; peptide + UDP (1:10)) [Å] | Rg from p(r) (GNOM) (GalNAc-T2 [2]; peptide + UDP (1:10)) [Å] | Dmax (GalNAc-T2 [2]; peptide + UDP (1:10)) [Å] | Rg of crystal complex (GalNAc-T2 [3]; GalNAc-T2-UDP-MUC5AC-13 complex) [Å] | form of GalNAc-T2 bound in crystal (GalNAc-T2 [3]; co-crystallization with UDP and Mn+2, flexible loop conformation) | Rg from p(r) (GNOM) (GalNAc-T2 [2]; ligand molar ratio 1:5) [Å] | Dmax (GalNAc-T2 [2]; ligand molar ratio 1:5) [Å] | Rg from p(r) (GNOM) (GalNAc-T2 [2]; ligand molar ratio 1:50) [Å] | Dmax (GalNAc-T2 [2]; ligand molar ratio 1:50) [Å] | Rg (Guinier) (GalNAc-T2 [2]; ligand molar ratio GalNAc-T2:ligand 1:5) [Å] | Rg (Guinier) (GalNAc-T2 [2]; ligand molar ratio GalNAc-T2:ligand 1:50) [Å] |
| --- | --- | --- | --- | --- | --- | --- | --- | --- | --- | --- | --- | --- | --- | --- | --- | --- | --- | --- | --- | --- |
| CC(=O)NCC(=O)N[C@H](C(=O)N[C@H](C(=O)N1CCC[C@H]1C(=O)N[C@@H](CO)C(=O)N1CCC[C@H]1C(=O)N[C@H](C(=O)N1CCC[C@H]1C(=O)N[C@H](C(=O)N[C@H](C(=O)N[C@@H](CO)C(=O)N[C@H](C(=O)N[C@H](C(=O)N[C@@H](CO)C(=O)N[C@@H](C)C(N)=O)[C@@H](C)O[C@H]1O[C@H](CO)[C@H](O)[C@H](O)[C@H]1NC(C)=O)[C@@H](C)O)[C@@H](C)O)[C@@H](C)O)C(C)C)[C@@H](C)O)[C@@H](C)O [MUC5AC-13] (Ac-GTTPSPVPTTSTT(αGalNAc)SA-NH2; N-terminus assumed) | optimally 10 residues N-terminal (Thr3) | not in an efficient manner | dimers almost disappear from solution | 30.6 | 112 | 29.2 | 102 | 30.2±0.2 | 29.1±0.1 | 30.7±0.4 | 31.7 | 112 | 26.41 | bound to an active form of GalNAc-T2 |  |  |  |  |  |  |
| O=c1ccn([C@@H]2O[C@H](COP(=O)(O)OP(=O)(O)O)[C@@H](O)[C@H]2O)c(=O)[nH]1 [UDP, uridine diphosphate, reference compound] |  |  |  | 35.0 | 123 | 34.5 | 122 | 34.4±0.3 | 34.0±0.2 |  |  |  |  |  | 34.3 | 121 | 36.0 | 129 | 32.7±0.3 | 36.0±0.3 |
